Results reported in ChEMBL document CHEMBL1201862, “PubChem BioAssay data set” (2004).
Activity calls are given as the source filed them.

Legend:
[1] = molecular target: T1, RNA-binding protein pos-1 (Caenorhabditis elegans, UniProt G5EF15); experiment: inhibitors of POS-1/mex-3 RNA binding, dose response, biochemical, fluorescence polarization (AID 1964);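 note: purified POS-1 fused to maltose binding protein made in E. coli; potency of compounds blocking POS-1 binding to fluorescent RNA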
T1 sequence (G5EF15 whole entry): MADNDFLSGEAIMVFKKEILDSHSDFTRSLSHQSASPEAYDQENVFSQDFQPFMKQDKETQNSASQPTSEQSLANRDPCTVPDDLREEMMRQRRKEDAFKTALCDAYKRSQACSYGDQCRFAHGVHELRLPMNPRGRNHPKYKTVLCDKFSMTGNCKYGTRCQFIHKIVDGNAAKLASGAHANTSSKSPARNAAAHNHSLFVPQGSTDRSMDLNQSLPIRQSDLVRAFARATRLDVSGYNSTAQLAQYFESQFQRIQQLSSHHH

[2] = molecular target: Glyceraldehyde-3-phosphate dehydrogenase (Homo sapiens, UniProt P04406)
Sequence of Glyceraldehyde-3-phosphate dehydrogenase (P04406 whole entry): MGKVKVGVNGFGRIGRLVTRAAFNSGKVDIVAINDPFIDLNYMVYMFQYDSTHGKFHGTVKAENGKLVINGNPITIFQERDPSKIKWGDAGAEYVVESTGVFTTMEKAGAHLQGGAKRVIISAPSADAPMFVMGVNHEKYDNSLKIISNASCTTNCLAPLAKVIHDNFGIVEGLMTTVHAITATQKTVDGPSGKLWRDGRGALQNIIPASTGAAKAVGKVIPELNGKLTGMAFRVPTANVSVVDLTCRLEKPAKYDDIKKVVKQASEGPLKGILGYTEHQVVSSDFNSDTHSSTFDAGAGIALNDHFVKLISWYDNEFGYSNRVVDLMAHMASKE

[3] = molecular target: T2, Zinc finger protein mex-5 (Caenorhabditis elegans, UniProt Q9XUB2); experiment: MEX-5/TCR-2 RNA interaction inhibitors, dose response, biochemical, C. elegans, fluorescence polarization (AID 1960)
T2 sequence (Q9XUB2 whole entry): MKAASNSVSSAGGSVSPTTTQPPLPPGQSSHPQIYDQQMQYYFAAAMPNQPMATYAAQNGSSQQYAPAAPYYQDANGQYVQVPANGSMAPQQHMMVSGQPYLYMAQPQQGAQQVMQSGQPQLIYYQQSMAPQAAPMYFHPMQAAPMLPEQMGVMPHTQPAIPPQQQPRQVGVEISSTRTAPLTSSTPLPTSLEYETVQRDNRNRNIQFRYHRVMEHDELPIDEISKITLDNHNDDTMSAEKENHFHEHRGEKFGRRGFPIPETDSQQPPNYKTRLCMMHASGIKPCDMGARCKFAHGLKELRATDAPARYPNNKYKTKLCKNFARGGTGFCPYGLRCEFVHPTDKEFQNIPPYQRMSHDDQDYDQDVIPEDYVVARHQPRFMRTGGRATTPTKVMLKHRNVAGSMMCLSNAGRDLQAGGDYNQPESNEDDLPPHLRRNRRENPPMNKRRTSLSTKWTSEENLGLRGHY

[4] = molecular target: Heat shock cognate 71 kDa protein (Homo sapiens, UniProt P11142); experiment: In Vitro Hsc70 Dose Response Fluorescence Polarization Assay. [Related pubchem assays: 1072 ]
Sequence of Heat shock cognate 71 kDa protein (P11142 whole entry): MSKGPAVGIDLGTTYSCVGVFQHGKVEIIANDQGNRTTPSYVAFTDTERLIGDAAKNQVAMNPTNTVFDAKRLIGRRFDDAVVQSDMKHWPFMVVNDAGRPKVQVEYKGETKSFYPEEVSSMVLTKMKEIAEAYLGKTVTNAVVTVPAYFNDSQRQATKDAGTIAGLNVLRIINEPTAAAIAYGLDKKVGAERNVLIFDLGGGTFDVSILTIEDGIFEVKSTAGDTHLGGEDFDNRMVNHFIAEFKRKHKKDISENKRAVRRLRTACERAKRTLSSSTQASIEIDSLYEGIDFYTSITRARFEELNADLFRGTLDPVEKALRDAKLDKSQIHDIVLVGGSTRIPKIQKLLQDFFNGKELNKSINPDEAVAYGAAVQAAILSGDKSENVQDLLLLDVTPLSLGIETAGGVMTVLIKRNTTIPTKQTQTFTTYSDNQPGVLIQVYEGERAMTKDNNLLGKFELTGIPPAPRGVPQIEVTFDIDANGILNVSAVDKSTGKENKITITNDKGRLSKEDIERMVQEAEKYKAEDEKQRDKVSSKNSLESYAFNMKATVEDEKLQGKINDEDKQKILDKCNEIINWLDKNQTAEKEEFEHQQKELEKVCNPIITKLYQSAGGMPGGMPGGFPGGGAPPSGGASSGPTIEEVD

Estrogen receptor = molecular target: T3, Estrogen receptor (Homo sapiens, UniProt P03372);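 note: potency for inhibiting coactivator peptide recruitment to the receptor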
T3 sequence (P03372 whole entry): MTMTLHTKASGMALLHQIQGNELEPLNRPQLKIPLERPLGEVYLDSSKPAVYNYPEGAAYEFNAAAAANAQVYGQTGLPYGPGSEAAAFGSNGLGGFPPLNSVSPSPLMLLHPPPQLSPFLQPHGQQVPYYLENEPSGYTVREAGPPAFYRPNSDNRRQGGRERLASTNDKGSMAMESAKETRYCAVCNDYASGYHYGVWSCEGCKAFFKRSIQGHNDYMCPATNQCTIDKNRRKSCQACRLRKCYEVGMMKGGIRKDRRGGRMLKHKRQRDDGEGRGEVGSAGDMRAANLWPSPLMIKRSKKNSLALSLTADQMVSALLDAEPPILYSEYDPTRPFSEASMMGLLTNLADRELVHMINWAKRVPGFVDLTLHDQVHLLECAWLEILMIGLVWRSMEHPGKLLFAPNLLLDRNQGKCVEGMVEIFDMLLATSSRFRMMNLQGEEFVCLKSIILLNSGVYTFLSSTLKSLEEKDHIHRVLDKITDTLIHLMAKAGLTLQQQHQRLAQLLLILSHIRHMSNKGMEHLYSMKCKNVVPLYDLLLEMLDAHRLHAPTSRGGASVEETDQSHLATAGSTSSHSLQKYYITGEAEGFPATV

[5] = molecular target: Heat shock 70 kDa protein 1A (Homo sapiens, UniProt P0DMV8); experiment: Hsp70 inhibitors, SAR follow-up, biochemical, fluorescence polarization (AID 1072)
Estrogen receptor beta = Estrogen receptor beta (Homo sapiens, UniProt Q92731); experiment: ERβ–SRC-3 coactivator interaction inhibitors, confirmation, orthogonal assay, biochemical, ELISA, streptavidin-HRP readout (AID 1060)
Sequence of Estrogen receptor beta (Q92731 whole entry): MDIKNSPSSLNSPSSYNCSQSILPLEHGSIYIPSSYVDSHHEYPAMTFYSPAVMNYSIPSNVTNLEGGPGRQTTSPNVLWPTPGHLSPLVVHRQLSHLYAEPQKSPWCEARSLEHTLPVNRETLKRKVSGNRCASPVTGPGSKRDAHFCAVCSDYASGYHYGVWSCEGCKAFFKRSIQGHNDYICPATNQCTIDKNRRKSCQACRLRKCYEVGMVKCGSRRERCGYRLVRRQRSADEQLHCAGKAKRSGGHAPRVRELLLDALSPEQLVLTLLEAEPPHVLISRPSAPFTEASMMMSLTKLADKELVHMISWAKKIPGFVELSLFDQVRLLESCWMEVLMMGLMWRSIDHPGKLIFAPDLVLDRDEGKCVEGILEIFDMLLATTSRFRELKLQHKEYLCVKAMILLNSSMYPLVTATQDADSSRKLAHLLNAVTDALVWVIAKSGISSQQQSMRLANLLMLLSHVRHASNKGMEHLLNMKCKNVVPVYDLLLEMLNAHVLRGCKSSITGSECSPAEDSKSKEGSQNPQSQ

[6] = molecular target: Induced myeloid leukemia cell differentiation protein Mcl-1 (Homo sapiens, UniProt Q07820); assay type: functional
Sequence of Induced myeloid leukemia cell differentiation protein Mcl-1 (Q07820 whole entry): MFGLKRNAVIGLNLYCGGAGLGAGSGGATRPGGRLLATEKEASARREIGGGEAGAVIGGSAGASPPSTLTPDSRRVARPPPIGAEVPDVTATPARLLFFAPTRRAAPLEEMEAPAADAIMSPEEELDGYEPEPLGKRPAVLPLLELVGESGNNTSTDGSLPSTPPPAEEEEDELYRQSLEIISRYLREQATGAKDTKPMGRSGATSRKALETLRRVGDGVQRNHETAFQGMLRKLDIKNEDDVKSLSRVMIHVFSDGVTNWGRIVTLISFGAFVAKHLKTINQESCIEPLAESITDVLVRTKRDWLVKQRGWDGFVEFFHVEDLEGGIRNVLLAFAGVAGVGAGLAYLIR

[7] = inhibitors of firefly luciferase expression or activity, dose response, H4 neuroglioma cells, luminescence (AID 1990); assay type: functional, cell-based
HEK293 [8] = experiment: NOD1 signaling inhibitors, primary screen, cell-based, luminescence, uHTS (AID 1578); assay type: functional; settings: Homo sapiens
[9] = tested on: Streptococcus sp. 'group A'; experiment: growth inhibition of control SK(-) GAS strain, dose response, counter-screen for streptokinase expression inhibitor project, luminescence, kanamycin, BacTiterGlo, confirmation (AID 1900); assay type: functional, organism-based
HEK293 [10] = experiment: cells; assay type: functional, cell-based; settings: Homo sapiens
[11] = Luminescence Cell-Based Dose Response HTS to Identify Inhibitors of 5'UTR Stem-Loop Driven Prion Protein mRNA Translation in H4 Neuroglioblastoma Cells. [Related pubchem assays: 1827 (Project Summary), 1813 (Primary HTS)]; assay type: functional
[12] = inhibitors of SNCA 5'UTR-driven reporter translation, confirmation, H4 neuroglioma cells, luminescence (AID 1988); assay type: functional, cell-based
HEK293 [13] = experiment: cells; assay type: functional, cell-based; settings: Homo sapiens; remark: listed apart in the source
[14] = molecular target: Nucleotide-binding oligomerization domain-containing protein 2 (Homo sapiens, UniProt Q9HC29); experiment: NOD2 signaling inhibitors, cell-based, luminescence, uHTS, HEK293 (AID 1566); assay type: functional
Sequence of Nucleotide-binding oligomerization domain-containing protein 2 (Q9HC29 whole entry, the tested form may be a part): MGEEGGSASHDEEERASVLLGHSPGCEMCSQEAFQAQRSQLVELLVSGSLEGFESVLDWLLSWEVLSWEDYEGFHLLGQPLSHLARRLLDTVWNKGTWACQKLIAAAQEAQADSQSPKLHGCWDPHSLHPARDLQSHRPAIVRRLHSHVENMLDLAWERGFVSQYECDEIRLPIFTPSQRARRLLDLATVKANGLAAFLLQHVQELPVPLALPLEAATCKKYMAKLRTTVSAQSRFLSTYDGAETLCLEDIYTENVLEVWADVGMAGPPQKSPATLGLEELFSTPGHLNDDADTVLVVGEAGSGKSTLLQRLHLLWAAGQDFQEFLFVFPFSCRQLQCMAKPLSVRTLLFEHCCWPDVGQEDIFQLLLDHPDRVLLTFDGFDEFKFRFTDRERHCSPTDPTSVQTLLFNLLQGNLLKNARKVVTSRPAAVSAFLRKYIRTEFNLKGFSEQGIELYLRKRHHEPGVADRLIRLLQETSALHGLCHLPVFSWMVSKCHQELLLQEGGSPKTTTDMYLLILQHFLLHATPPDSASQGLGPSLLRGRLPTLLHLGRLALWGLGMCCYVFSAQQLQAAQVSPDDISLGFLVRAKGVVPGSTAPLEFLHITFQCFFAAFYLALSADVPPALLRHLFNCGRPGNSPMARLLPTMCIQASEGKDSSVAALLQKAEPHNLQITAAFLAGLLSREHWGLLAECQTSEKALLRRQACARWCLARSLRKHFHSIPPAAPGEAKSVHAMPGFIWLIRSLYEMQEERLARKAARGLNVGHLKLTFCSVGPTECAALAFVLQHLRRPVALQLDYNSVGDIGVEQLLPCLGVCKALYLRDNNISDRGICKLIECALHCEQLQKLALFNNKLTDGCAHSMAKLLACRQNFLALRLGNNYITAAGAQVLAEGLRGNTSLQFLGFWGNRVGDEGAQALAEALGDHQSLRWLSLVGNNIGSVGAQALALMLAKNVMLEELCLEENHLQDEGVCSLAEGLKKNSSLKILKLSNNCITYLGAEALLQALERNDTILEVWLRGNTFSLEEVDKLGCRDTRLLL

HEK293 [15] = experiment: NOD2 signaling inhibitors in MDP-stimulated cells, cell-based, uHTS, luminescence (AID 2001); assay type: functional; settings: Homo sapiens
HEK293 [16] = experiment: cells; assay type: functional, cell-based; settings: Homo sapiens; remark: listed apart in the source
Streptococcus = experiment: Group A Streptococcus viability loss, dose response, counter-screen for streptokinase expression inhibitor project, luminescence, BacTiterGlo (AID 1915); assay type: functional, organism-based;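 note: potency for reduction of bacterial viability or growth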
[17] = molecular target: Melanin-concentrating hormone receptor 1 (Homo sapiens, UniProt Q99705); experiment: Late-stage fluorescence-based counterscreen for antagonists of the G-protein coupled receptor 7 (GPR7): cell-based dose response assay to identify antagonists of the melanin-concentrating hormone receptor 1 (MCHR1). [Related pubchem assays (depositor defined):AID1861, AID1880, AID1952, AID2148, AID2251, AID2257, AID485339]; assay type: functional;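 note: stimulated with 30 nM MCH peptide agonist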
Sequence of Melanin-concentrating hormone receptor 1 (Q99705 whole entry): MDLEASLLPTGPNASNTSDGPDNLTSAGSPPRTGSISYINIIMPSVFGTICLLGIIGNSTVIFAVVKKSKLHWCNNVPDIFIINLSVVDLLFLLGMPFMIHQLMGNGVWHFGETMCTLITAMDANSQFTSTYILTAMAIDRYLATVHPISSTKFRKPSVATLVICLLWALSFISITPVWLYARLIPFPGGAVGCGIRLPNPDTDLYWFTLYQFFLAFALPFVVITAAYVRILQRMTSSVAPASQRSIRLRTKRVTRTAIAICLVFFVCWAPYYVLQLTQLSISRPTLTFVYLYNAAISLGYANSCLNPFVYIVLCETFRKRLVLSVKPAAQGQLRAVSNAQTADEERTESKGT

ORF 73 = ORF 73 (Human herpesvirus 8, UniProt O40947); experiment: inhibitors of C-LANA binding to LBS DNA, dose response, biochemical, fluorescence polarization, cherry-picked samples (AID 504725); parameters: species or system Human gammaherpesvirus 8;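 note: fluorescence polarization of a labeled DNA duplex reporting LANA DNA binding; potency is for inhibitors that block LANA binding to the DNA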
Sequence of ORF 73 (O40947 whole entry): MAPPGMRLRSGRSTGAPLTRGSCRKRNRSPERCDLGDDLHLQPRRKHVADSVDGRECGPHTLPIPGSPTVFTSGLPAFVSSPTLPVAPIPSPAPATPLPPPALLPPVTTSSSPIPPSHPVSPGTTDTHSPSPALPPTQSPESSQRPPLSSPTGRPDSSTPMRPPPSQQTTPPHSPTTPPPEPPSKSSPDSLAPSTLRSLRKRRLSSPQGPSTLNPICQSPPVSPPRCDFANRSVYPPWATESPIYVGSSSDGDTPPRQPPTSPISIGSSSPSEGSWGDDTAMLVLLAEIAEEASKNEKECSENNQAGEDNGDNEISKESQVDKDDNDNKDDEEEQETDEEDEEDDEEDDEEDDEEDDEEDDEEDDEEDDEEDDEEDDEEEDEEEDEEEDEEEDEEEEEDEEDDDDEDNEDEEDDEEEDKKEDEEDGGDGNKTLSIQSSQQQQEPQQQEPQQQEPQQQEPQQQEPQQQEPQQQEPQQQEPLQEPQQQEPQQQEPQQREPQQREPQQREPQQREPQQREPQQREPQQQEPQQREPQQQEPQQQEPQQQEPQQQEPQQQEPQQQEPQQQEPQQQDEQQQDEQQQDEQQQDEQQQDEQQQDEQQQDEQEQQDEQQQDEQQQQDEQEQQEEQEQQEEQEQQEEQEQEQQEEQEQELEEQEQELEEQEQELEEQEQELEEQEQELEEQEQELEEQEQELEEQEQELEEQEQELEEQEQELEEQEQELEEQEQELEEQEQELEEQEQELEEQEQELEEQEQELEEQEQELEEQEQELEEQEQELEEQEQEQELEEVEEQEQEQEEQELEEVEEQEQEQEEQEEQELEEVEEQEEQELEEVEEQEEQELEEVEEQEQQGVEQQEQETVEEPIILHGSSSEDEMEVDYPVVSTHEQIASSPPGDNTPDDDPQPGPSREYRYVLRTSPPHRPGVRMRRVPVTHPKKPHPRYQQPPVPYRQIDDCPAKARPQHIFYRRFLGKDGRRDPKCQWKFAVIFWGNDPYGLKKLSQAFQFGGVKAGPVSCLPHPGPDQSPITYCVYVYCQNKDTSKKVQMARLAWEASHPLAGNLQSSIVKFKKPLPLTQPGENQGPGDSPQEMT

Cytochrome P450 2D6 [18] = molecular target: T4, Cytochrome P450 2D6 (Homo sapiens, UniProt P10635);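 note: CYP2D6 member of a cytochrome P450 panel assay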
T4 sequence (P10635 whole entry): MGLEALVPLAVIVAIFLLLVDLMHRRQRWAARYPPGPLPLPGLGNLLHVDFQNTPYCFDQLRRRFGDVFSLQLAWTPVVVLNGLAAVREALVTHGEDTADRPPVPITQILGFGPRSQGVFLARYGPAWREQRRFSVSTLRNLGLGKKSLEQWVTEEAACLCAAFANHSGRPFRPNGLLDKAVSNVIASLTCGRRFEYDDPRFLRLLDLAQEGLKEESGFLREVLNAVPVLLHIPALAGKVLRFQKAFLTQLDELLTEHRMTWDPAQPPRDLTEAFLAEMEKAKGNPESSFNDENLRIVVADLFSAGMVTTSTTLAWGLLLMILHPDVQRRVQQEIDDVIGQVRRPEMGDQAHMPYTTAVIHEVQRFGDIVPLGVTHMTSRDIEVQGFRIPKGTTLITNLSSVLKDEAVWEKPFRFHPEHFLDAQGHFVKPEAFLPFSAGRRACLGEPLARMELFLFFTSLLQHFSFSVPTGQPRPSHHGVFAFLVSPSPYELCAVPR

Cytochrome P450 2D6 [19] = molecular target: T4, Cytochrome P450 2D6; remark: listed apart in the source

## O=C(O)C1Nc2c(C(=O)N3CCOCC3)cccc2C2C=CCC12 (centres undefined)
[1]
  EC50: 45.1 µM (active)
[2]
  IC50: > 100 µM (not active)
[3]
  EC50: 21.3 µM (inconclusive)
[4]
  IC50: > 100 µM (not active)
Estrogen receptor
  IC50: 15.9 µM (active)
[5]
  IC50: > 100 µM (not active)
Estrogen receptor beta
  IC50: 0.0407 µM (not active)
[6]
  IC50: 2.78 µM (not active)

## Cc1ccc(OCCn2c(NC(=O)c3ccco3)nc3ccccc32)cc1
[7]
  EC50: 13.1 µM (active)
HEK293 [8]
  EC50: 3.15 µM (active)
[9]
  EC50: 1.6 µM (active)
HEK293 [10]
  IC50: 4.87 µM (active)
[11]
  EC50: 15.8 µM (active)
[12]
  EC50: 10.3 µM (active)
HEK293 [13]
  IC50: > 20 µM (inactive)
[14]
  EC50: > 20 µM (inactive)
HEK293 [15]
  IC50: 2.41 µM (active)
HEK293 [16]
  IC50: > 20 µM (inactive)
Streptococcus
  EC50: 3.87 µM (active)

## CC(C)c1ccc(-n2ncc(Cl)c(Oc3ccc(Cl)c(Cl)c3)c2=O)cc1
[17]
  IC50: 15.9 µM (inactive)

## COc1ccc(Oc2c(Cl)cnn(-c3cc(C)ccc3C)c2=O)cc1
[17]
  IC50: 12.2 µM (inactive)

## OCCN(CCO)c1nc(N2CCCCC2)c2nc(N(CCO)CCO)nc(N3CCCCC3)c2n1 [DIPYRIDAMOLE]
ORF 73
  AC50: 8.87 µM (active)
Cytochrome P450 2D6 [18]
  AC50: 10 µM (active)
Cytochrome P450 2D6 [19]
  AC50: inactive
